Assay results published in patent US20200165257A1, “INHIBITORS OF PHOSPHOINOSITIDE 3-KINASE AND HISTONE DEACETYLASE FOR TREATMENT OF CANCER” (THE UNITED STATES OF AMERICA, AS REPRESENTED BY THE …, priority 2017, published 2020).

What was measured:
Leukemia Cell Line K-562 = assay type: cell-based; details: Homo sapiens, K562; K-562; single dose, 10 uM compound concentration; read-out: inhibition of proliferation
[1] = system: Ovarian Cell Line OVCAR-8; assay: cells; assay type: cell-based; details: Homo sapiens; OVCAR-8; single dose, 10 uM compound concentration; read-out: inhibition of proliferation
[2] = system: Leukemia Cell Line MOLT-4; assay type: cell-based; details: Homo sapiens; MOLT-4; single dose, 10 uM compound concentration; read-out: inhibition of proliferation
[3] = system: Breast Cancer Cell Line MDA-MB-468; assay: cells; details: Homo sapiens, MDA-MB-468, read-out: inhibition of proliferation
HDAC6 = target: T1, HDAC6 (Homo sapiens, UniProt Q9UBN7); assay: HDAC Fluorescent Activity Assay; assay type: biochemical; details: symbols ++ / +; read-out: HDAC6 Inhibition Activity (IC50 class)
T1 sequence (Q9UBN7 1-1215): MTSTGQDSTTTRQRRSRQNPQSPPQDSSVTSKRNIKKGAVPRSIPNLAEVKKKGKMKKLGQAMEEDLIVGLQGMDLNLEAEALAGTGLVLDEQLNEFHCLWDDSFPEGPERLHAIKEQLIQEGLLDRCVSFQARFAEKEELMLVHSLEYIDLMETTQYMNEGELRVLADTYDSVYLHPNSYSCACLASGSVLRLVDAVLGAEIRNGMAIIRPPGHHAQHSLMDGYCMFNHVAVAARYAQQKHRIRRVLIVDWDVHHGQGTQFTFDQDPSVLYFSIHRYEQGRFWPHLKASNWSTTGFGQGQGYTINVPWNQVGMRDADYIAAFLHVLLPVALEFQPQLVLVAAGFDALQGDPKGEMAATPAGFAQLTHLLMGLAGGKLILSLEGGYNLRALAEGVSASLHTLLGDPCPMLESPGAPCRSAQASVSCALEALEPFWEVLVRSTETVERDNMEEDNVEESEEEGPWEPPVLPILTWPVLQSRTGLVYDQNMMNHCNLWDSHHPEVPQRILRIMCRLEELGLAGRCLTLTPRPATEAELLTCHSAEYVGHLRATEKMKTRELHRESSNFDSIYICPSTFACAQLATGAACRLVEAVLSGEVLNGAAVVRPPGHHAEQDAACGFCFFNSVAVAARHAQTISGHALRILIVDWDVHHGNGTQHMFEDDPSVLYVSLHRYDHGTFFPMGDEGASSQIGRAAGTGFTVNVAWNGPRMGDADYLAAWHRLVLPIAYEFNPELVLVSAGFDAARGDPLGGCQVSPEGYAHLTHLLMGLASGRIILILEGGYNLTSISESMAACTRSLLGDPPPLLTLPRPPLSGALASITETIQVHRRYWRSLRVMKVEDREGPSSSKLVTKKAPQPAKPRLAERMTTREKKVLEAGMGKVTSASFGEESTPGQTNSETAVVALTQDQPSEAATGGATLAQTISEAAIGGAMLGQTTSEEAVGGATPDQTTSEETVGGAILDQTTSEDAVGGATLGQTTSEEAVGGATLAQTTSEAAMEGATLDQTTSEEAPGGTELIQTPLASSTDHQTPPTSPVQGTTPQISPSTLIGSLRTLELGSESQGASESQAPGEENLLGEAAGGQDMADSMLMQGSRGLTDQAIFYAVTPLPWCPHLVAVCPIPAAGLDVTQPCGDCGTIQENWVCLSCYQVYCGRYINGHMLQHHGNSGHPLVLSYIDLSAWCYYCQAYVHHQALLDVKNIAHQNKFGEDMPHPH

[4] = system: Leukemia Cell Line CCRF-CEM; assay: cells; assay type: cell-based; details: Homo sapiens, single dose, 10 uM compound concentration, read-out: inhibition of proliferation
[5] = system: Leukemia Cell Line RPMI-8226; assay type: cell-based; details: Homo sapiens; RPMI-8226; single dose, 10 uM compound concentration; read-out: inhibition of proliferation
Leukemia Cell Line SR = assay: cells; assay type: cell-based; details: Homo sapiens; SR; single dose, 10 uM compound concentration; read-out: inhibition of proliferation
[6] = system: Leukemia Cell Line HL-60(TB); assay type: cell-based; details: Homo sapiens; HL-60(TB); single dose, 10 uM compound concentration; read-out: inhibition of proliferation
Ovarian Cell Line IGROV1 = assay type: cell-based; details: Homo sapiens, IGROV-1; IGROV1; single dose, 10 uM compound concentration; read-out: inhibition of proliferation
[7] = system: Breast Cancer Cell Line BT-549; assay: cells; assay type: cell-based; details: Homo sapiens; BT-549; single dose, 10 uM compound concentration; read-out: inhibition of proliferation

CC[C@H](Nc1nc(N)nc(C)c1C#N)c1nc2cccc(CN(C)c3ncc(C(=O)NO)cn3)c2c(=O)n1-c1ccccc1 [LII, (S)-2-(((2-(1-((2-amino-5-cyano-6-methylpyrimidin-4-yl)amino)propyl)-4-oxo-3-phenyl-3,4-dihydroquinazolin-5-yl)methyl)(methyl)amino)-N-hydroxypyrimidine-5-carboxamide]
inhibition at 10 µM (Leukemia Cell Line K-562): > 50%
inhibition at 10 µM [1]: > 50%
inhibition at 10 µM [2]: > 50%
inhibition at 10 µM [3]: > 50%
IC50 (HDAC6): < 100 nM
inhibition at 10 µM [4]: > 50%
inhibition at 10 µM [5]: > 50%
inhibition at 10 µM (Leukemia Cell Line SR): > 50%
inhibition at 10 µM [6]: > 50%
inhibition at 10 µM (Ovarian Cell Line IGROV1): > 50%
inhibition at 10 µM [7]: > 50%
